Assay results: PubChem BioAssay AID1919016 (Molecular Pharmacology Branch, DTP, NCI, 2023)

System: NCI-H196 complex spheroid growth, percent test/control
Test: Anticancer human tumor NCI-H196 cell line growth inhibition [AhR];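 further: seven days of drug exposure starting three days after plating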;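 on viability, T/C: 100% = DMSO vehicle control wells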
Conditions: for IC50: curve of first compound; for viability, T/C: stronger effect = lower value
Outline: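 Complex tumor spheroids co-cultured with HUVEC and human MSC stroma; AhR antagonists tested in combination with standard-of-care and investigational agents. Top concentration at or near clinical Cmax (else 10 microM), half-log dilutions; growth expressed as percent test/control.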

[1] = second compound 0.1 µM, first compound 0.00316 µM
[2] = second compound 0.1 µM, first compound 0.01 µM
[3] = second compound 0.1 µM, first compound 0.0316 µM
[4] = second compound 0.1 µM, first compound 0.1 µM
[5] = second compound 0.316 µM, first compound 0.00316 µM
[6] = second compound 0.316 µM, first compound 0.01 µM
[7] = second compound 0.316 µM, first compound 0.0316 µM
[8] = second compound 0.316 µM, first compound 0.1 µM
[9] = second compound 1 µM, first compound 0.00316 µM
[10] = second compound 1 µM, first compound 0.01 µM
[11] = second compound 1 µM, first compound 0.0316 µM
[12] = second compound 1 µM, first compound 0.1 µM
[13] = second compound 3.16 µM, first compound 0.00316 µM
[14] = second compound 3.16 µM, first compound 0.01 µM
[15] = second compound 3.16 µM, first compound 0.0316 µM
[16] = second compound 3.16 µM, first compound 0.1 µM
[17] = second compound 10 µM, first compound 0.00316 µM
[18] = second compound 10 µM, first compound 0.01 µM
[19] = second compound 10 µM, first compound 0.0316 µM
[20] = second compound 10 µM, first compound 0.1 µM
[21] = second compound 0.1 µM, first compound 0.316 µM
[22] = second compound 0.1 µM, first compound 1 µM
[23] = second compound 0.1 µM, first compound 3.16 µM
[24] = second compound 0.1 µM, first compound 10 µM
[25] = second compound 0.316 µM, first compound 0.316 µM
[26] = second compound 0.316 µM, first compound 1 µM
[27] = second compound 0.316 µM, first compound 3.16 µM
[28] = second compound 0.316 µM, first compound 10 µM
[29] = second compound 1 µM, first compound 0.316 µM
[30] = second compound 1 µM, first compound 1 µM
[31] = second compound 1 µM, first compound 3.16 µM
[32] = second compound 1 µM, first compound 10 µM
[33] = second compound 3.16 µM, first compound 0.316 µM
[34] = second compound 3.16 µM, first compound 1 µM
[35] = second compound 3.16 µM, first compound 3.16 µM
[36] = second compound 3.16 µM, first compound 10 µM
[37] = second compound 10 µM, first compound 0.316 µM
[38] = second compound 10 µM, first compound 1 µM
[39] = second compound 10 µM, first compound 3.16 µM
[40] = second compound 10 µM, first compound 10 µM

Row | SMILES | IC50 (second compound 0.1 µM) [µM] | IC50 (second compound 0.316 µM) [µM] | IC50 (second compound 1 µM) [µM] | IC50 (second compound 3.16 µM) [µM] | IC50 (second compound 10 µM) [µM] | viability, T/C [3] [%] | viability, T/C [4] [%] | viability, T/C [7] [%] | viability, T/C [8] [%] | viability, T/C [11] [%] | viability, T/C [12] [%] | viability, T/C [15] [%] | viability, T/C [16] [%] | viability, T/C [19] [%] | viability, T/C [20] [%] | viability, T/C [21] [%] | viability, T/C [22] [%] | viability, T/C [25] [%] | viability, T/C [26] [%] | viability, T/C [29] [%] | further results
1 | CC[C@@]1(O)C(=O)OCc2c1cc1n(c2=O)Cc2cc3c(CN(C)C)c(O)ccc3nc2-1 + Cc1cncc(-c2nc(NCCc3c[nH]c4ccccc34)c3ncn(C(C)C)c3n2)c1 | > 0.1 | > 0.1 | > 0.1 | > 0.1 | > 0.1 | 96.8 | 105 | 94.7 | 99.2 | 101 | 89.8 | 104 | 95.2 | 83.9 | 77.2 |  |  |  |  |  | viability, T/C (second compound 0.1 µM, first compound 0.000316 µM): 105%; viability, T/C (second compound 0.1 µM, first compound 0.001 µM): 95.5%; viability, T/C [1]: 83%; viability, T/C [2]: 88.8%; viability, T/C (second compound 0.316 µM, first compound 0.000316 µM): 101%; viability, T/C (second compound 0.316 µM, first compound 0.001 µM): 100%; viability, T/C [5]: 98.8%; viability, T/C [6]: 95.5%; viability, T/C (second compound 1 µM, first compound 0.000316 µM): 108%; viability, T/C (second compound 1 µM, first compound 0.001 µM): 103%; viability, T/C [9]: 91%; viability, T/C [10]: 92.3%; viability, T/C (second compound 3.16 µM, first compound 0.000316 µM): 104%; viability, T/C (second compound 3.16 µM, first compound 0.001 µM): 101%; viability, T/C [13]: 96.7%; viability, T/C [14]: 88.8%; viability, T/C (second compound 10 µM, first compound 0.000316 µM): 82.8%; viability, T/C (second compound 10 µM, first compound 0.001 µM): 97.7%; viability, T/C [17]: 95.7%; viability, T/C [18]: 74.1%
2 | COc1cc(C2c3cc4c(cc3C(OC3OC5COC(C)OC5C(O)C3O)C3COC(=O)C23)OCO4)cc(OC)c1O (stereo not given) + Cc1cncc(-c2nc(NCCc3c[nH]c4ccccc34)c3ncn(C(C)C)c3n2)c1 | > 10 | > 10 | > 10 | > 10 | > 10 | 104 | 103 | 104 | 109 | 99.7 | 112 | 108 | 114 | 89.1 | 92 | 98.9 | 99.8 | 101 | 105 | 104 | viability, T/C [23]: 103%; viability, T/C [24]: 96.7%; viability, T/C [27]: 112%; viability, T/C [28]: 89.4%; viability, T/C [30]: 109%; viability, T/C [31]: 103%; viability, T/C [32]: 77.8%; viability, T/C [33]: 112%; viability, T/C [34]: 105%; viability, T/C [35]: 100%; viability, T/C [36]: 81.9%; viability, T/C [37]: 101%; viability, T/C [38]: 84.3%; viability, T/C [39]: 77.4%; viability, T/C [40]: 62%
3 | COc1cccc2c1C(=O)c1c(O)c3c(c(O)c1C2=O)CC(O)(C(=O)CO)CC3OC1CC(N)C(O)C(C)O1 (stereo not given) + Cc1cncc(-c2nc(NCCc3c[nH]c4ccccc34)c3ncn(C(C)C)c3n2)c1 | 0.545 | 0.528 | 0.458 | 0.414 | 0.33 | 117 | 102 | 109 | 115 | 110 | 106 | 119 | 95.9 | 94.2 | 77.8 | 72.1 | 27.3 | 77.3 | 15.7 | 66.3 | viability, T/C [23]: 2.2%; viability, T/C [24]: 2.04%; viability, T/C [27]: 0.7%; viability, T/C [28]: 1.46%; viability, T/C [30]: 15.6%; viability, T/C [31]: 0.61%; viability, T/C [32]: 3.01%; viability, T/C [33]: 66.2%; viability, T/C [34]: 6.46%; viability, T/C [35]: 1.24%; viability, T/C [36]: 2.12%; viability, T/C [37]: 53.6%; viability, T/C [38]: 2.32%; viability, T/C [39]: 0.59%; viability, T/C [40]: 1.88%
4 | Nc1ncn(C2CC(O)C(CO)O2)c(=O)n1 (stereo not given) + Cc1cncc(-c2nc(NCCc3c[nH]c4ccccc34)c3ncn(C(C)C)c3n2)c1 | > 1 | > 1 | > 1 | > 1 | > 1 | 104 | 97.9 | 114 | 104 | 115 | 96.3 | 109 | 111 | 104 | 89.6 | 107 | 99.8 | 105 | 105 | 117 | viability, T/C [1]: 110%; viability, T/C [2]: 105%; viability, T/C [5]: 106%; viability, T/C [6]: 98.5%; viability, T/C [9]: 122%; viability, T/C [10]: 106%; viability, T/C [30]: 103%; viability, T/C [13]: 102%; viability, T/C [14]: 112%; viability, T/C [33]: 108%; viability, T/C [34]: 109%; viability, T/C [17]: 96.2%; viability, T/C [18]: 86.9%; viability, T/C [37]: 87.8%; viability, T/C [38]: 86.1%
